“Also recorded” adds a separate entry of the source.
Key:
[1] = Toxicity study: weight change and survival of normal Swiss mice; assay type: in vivo, Swiss female mice; conditions: 30 mg/kg/day i.p.
Method: A toxicity study was conducted on 6-week-old Swiss female mice treated with CDU and CFAU at 30 mg/kg/day. The compounds were prepared in sterile DMSO and injected intraperitoneally (0.1 mL). DMSO and water were used as controls, with the same injection volume as that used for the CDU and CFAU solutions. The dosing schedule used was once a day for 6 days, and the mice were weighed biweekly for 28 days. Results shown in Table 3 somewhat correlate with the cytotoxicity assays in vitro.

[2] = Plasma protein binding of CDU by equilibrium dialysis; assay type: in vitro ADME, rat
Method: Protein binding was determined by equilibrium dialysis. Various amounts of CDU were added to drug free rat plasma to yield CDU concentrations ranging from 0.5 to 100 μg/ml. Plexiglass dialysis cells and dialysis membrane (Spectrapor II, Spectrum Medical Industries, Los Angeles, Calif.) were used. Plasma (0.8 ml) containing different concentrations of CDU was dialyzed against 0.8 ml of isotonic sodium phosphate buffer, pH 7.4, in a shaking water bath at 37° C. for 16 hours. The post-dialysis plasma and buffer volumes were measured and samples were frozen at -20° C. until analysis. The binding data was corrected for fluid shifts that occurred during dialysis. Experiments were performed in duplicate.
This concentration range encompassed those observed following intravenous administration of 25 mg/kg CDU to rats. Assuming that the lipophilic compound CDU is bound predominantly by hydrophobic interactions to albumin, the equilibrium association constant for the protein binding of CDU was approximately 4×10^4 M^-1.

[3] = Partition coefficient of CDU in octanol:phosphate buffer (pH 7.4); assay type: physicochemical
Method: The partition coefficient (P) of CDU was determined in octanol:phosphate buffer (pH 7.4). The octanol and aqueous phases were equilibrated by shaking together for 1 hour at 20° C. Two milliliters (2 ml) of octanol containing 0.5 mg/ml of CDU were shaken with 4 ml of buffer on a horizontal shaker for 12, hour at 25° C. Tubes were centrifuged to separate the phases and both phases were analyzed by HPLC as described below. The partition coefficient was calculated by dividing the CDU concentration in octanol by the CDU concentration in buffer. Results are reported as log P values.
The average octanol:phosphate buffer, pH 7.4, P value was determined to be 3090.

[4] = tested on: xenographed human prostate tumor; assay: Accumulation of CDU in xenographed human prostate tumor, brain and serum of nude mice; assay type: in vivo
Source text: The development of the immunodeficient athymic nude mouse has permitted the establishment of human tumors in serial transplantation which provides a representative model of the human disease state. This system, which uses the subcutaneous or subrenal capsule assay is particularly useful in assessing new therapeutic strategies in the treatment of human malignancies and ensures the availability of a constant source of non-attenuated fresh human tumor cells.
Any of these systems can be used to evaluate the extent of accumulation of a selected boron-containing compound in a selected urogenital cancer cell line, or the effect of irradiation of the accumulated compound on that cell line. A detailed example of the evaluation of the accumulation of CDU in a xenographed human prostate tumor obtained from nude mice treated intraperitoneally with 5 mg/kg of tritiated CDU (15 μCi/mouse) is provided in Example 5.
To analyze the concentration of ^10 B-containing compounds in urogenital tissue, the tumor is removed from the animal and then lyophylized. The ^10 B-containing compounds are extracted with a methanol/water solution, and then counted using known methods.
Table 1 provides a summary of the accumulation of CDU in a xenographed human prostate tumor on nude mice treated intraperitoneally with 5 mg/kg of tritiated CDU (15 μCu/mouse). […] The compound partitions in a ratio of approximately 2:1 in the prostate versus blood serum.

[5] = tested on: human lymphoma (CEM) cells; assay: Cellular uptake and intracellular phosphorylation, CEM cells; assay type: cell-based
Source text: Carboranyl-containing nucleosides and oligonucleotides, which are lipophilic and have a high content of boron atoms, are particularly suited for use in BNCT of urogenital tumors. Preferred compounds include 5-carboranyl-2'-deoxyuridine (CDU) and 5-o-carboranyl-1-(2-deoxy-2-fluoro-β-D-arabinofuranosyl)uracil (CFAU). […] The entrapment of this molecule in cells allows for the enhancement of the tumor-to-blood ratio for BNCT. CFAU has increased glycosidic bond stability conferred by the β-fluorine group positioned on the 2'-carbon of the nucleoside.
It has been discovered that boron neutron capture therapy, optionally combined with antisense oligonucleotide therapy, can be used in the treatment of urogenital cancer, and in particular, that of the prostate, bladder, and kidney. Any boron-containing compound that is sufficiently lipophilic to pass through the appropriate urogenital membranes in a quantity high enough to achieve therapy on irradiation with low-energy neutrons can be used. Carboranyl-containing nucleosides and oligonucleotides, which are lipophilic and have a high content of boron atoms, are particularly suited for use in BNCT of urogenital cancer. Preferred compounds include 5-carboranyl-2'-deoxyuridine (CDU) and 5-o-carboranyl-1-(2-deoxy-2-fluoro-β-D-arabinofuranosyl)uracil (CFAU). […] The entrapment of this molecule in cells allows the enhancement of the tumor-to-blood ratio for BNCT. CFAU has increased glycosidic bond stability conferred by the β-fluorine group positioned on the 2'-carbon of the nucleoside.

[6] = brain, 1 hr after CDU, 5 mg/kg tritiated CDU i.p.
[7] = brain, 2 hr after CDU, 5 mg/kg tritiated CDU i.p.
[8] = serum, 1 hr after CDU, 5 mg/kg tritiated CDU i.p.
[9] = serum, 2 hr after CDU, 5 mg/kg tritiated CDU i.p.
[10] = tumor, 2 hr after CDU, 5 mg/kg tritiated CDU i.p.

## 5-carboranyl-2'-deoxyuridine [CDU]
[1]; CFAU and CDU compared
  weight loss after 1 week (in words): comparable weight loss after 1 week
[1]; surviving animals
  weight recovery at 4 weeks (in words): all the surviving animals recovered their weight loss to control untreated levels
[1]; week 1, once a day for 6 days
  % of weight gained or lost on week 1: -7.4%
[1]; week 2, once a day for 6 days
  % of weight gained or lost on week 2: 0.1%
[1]; week 3, once a day for 6 days
  % of weight gained or lost on week 3: 4.8%
[1]; week 4, once a day for 6 days
  % of weight gained or lost on week 4: 11.2%
  survival at week 4, alive/total: 5/5
[1]; week 4, once a day for 6 days, 40320 min
  survival at week 4 (%): 100%
[2]; 0.5 μg/ml to 100 μg/ml
  concentration dependence of plasma protein binding (in words): independent of the nucleoside concentration; also recorded: in a linear manner
[2]; 0.5 μg/ml to 100 μg/ml, rat plasma, 960 min
  bound to plasma proteins: 95.5%
[2]; assuming binding predominantly to albumin, 960 min
  equilibrium association constant for the protein binding: approximately 4×10^4 M^-1
[2]; rat plasma, 37° C., pH 7.4, 960 min
  average fraction bound to the plasma proteins: 0.95±0.02
[3]
  lipophilicity (in words): highly lipophilic
  log P: 3.49
[4]; [6]
  Mean DPM/mg of dry weight, brain, 1 hr: 42.8 DPM/mg of dry weight
  pmole/mg of dry weight, brain, 1 hr: 0.32 pmole/mg of dry weight
[4]; [7]
  Mean DPM/mg of dry weight, brain, 2 hr: 23.4 DPM/mg of dry weight
  pmole/mg of dry weight, brain, 2 hr: 0.17 pmole/mg of dry weight
[4]; over brain tissue and serum, 5 mg/kg tritiated CDU i.p.
  accumulation in the prostate cancer cells (in words): significantly accumulates in the prostate cancer cells, and preferentially so, over brain tissue and serum
[4]; [8]
  Mean DPM/mg of dry weight, serum, 1 hr: 181.0 DPM/mg of dry weight
  pmole/mg of dry weight, serum, 1 hr: 1.33 pmole/mg of dry weight
[4]; [9]
  Mean DPM/mg of dry weight, serum, 2 hr: 111.0 DPM/mg of dry weight
  pmole/mg of dry weight, serum, 2 hr: 0.82 pmole/mg of dry weight
[4]; tumor, 1 hr after CDU, 5 mg/kg tritiated CDU i.p.
  pmole/mg of dry weight, tumor, 1 hr: 3.60 pmole/mg of dry weight
[4]; tumor, 1 hr after CDU, 5 mg/kg tritiated CDU i.p. (15 μCi/mouse)
  Mean DPM/mg of dry weight, tumor, 1 hr: 489.1 DPM/mg of dry weight
[4]; [10]
  Mean DPM/mg of dry weight, tumor, 2 hr: 256.7 DPM/mg of dry weight
  pmole/mg of dry weight, tumor, 2 hr: 1.89 pmole/mg of dry weight
[5]; cells not separated (CEM and PBM named)
  intracellular formation of CDU 5'-monophosphate (in words): CDU 5'-monophosphate is formed intracellularly; also recorded: CDU-5'-monophosphate is formed intracellularly
[5]; human lymphoma (CEM) cells
  intracellular phosphorylation in CEM cells (in words): intracellularly phosphorylated
  uptake by CEM cells (in words): taken up

— patent US5872107A, “Treatment of urogenital cancer with boron neutron capture therapy” (Emory University, priority 1997, dated 1999)
